Results on 24 compounds are retold here after patent publication US20130150377A1, “Tetrahydropyridinyl and Dihydropyrrolyl Compounds and the Use Thereof” (SHIONOGI & CO., LTD., priority 2008, published 2013).

Broadly, the IC50 is the point on the concentration scale where inhibition reaches its midpoint.

The assay deals with T1, N-type calcium channel (NTCC) (Homo sapiens, UniProt Q00975).
T1 construct: endogenous in cells; host or cells: differentiated IMR32 cells (ATCC)
T1 sequence (Q00975 whole entry): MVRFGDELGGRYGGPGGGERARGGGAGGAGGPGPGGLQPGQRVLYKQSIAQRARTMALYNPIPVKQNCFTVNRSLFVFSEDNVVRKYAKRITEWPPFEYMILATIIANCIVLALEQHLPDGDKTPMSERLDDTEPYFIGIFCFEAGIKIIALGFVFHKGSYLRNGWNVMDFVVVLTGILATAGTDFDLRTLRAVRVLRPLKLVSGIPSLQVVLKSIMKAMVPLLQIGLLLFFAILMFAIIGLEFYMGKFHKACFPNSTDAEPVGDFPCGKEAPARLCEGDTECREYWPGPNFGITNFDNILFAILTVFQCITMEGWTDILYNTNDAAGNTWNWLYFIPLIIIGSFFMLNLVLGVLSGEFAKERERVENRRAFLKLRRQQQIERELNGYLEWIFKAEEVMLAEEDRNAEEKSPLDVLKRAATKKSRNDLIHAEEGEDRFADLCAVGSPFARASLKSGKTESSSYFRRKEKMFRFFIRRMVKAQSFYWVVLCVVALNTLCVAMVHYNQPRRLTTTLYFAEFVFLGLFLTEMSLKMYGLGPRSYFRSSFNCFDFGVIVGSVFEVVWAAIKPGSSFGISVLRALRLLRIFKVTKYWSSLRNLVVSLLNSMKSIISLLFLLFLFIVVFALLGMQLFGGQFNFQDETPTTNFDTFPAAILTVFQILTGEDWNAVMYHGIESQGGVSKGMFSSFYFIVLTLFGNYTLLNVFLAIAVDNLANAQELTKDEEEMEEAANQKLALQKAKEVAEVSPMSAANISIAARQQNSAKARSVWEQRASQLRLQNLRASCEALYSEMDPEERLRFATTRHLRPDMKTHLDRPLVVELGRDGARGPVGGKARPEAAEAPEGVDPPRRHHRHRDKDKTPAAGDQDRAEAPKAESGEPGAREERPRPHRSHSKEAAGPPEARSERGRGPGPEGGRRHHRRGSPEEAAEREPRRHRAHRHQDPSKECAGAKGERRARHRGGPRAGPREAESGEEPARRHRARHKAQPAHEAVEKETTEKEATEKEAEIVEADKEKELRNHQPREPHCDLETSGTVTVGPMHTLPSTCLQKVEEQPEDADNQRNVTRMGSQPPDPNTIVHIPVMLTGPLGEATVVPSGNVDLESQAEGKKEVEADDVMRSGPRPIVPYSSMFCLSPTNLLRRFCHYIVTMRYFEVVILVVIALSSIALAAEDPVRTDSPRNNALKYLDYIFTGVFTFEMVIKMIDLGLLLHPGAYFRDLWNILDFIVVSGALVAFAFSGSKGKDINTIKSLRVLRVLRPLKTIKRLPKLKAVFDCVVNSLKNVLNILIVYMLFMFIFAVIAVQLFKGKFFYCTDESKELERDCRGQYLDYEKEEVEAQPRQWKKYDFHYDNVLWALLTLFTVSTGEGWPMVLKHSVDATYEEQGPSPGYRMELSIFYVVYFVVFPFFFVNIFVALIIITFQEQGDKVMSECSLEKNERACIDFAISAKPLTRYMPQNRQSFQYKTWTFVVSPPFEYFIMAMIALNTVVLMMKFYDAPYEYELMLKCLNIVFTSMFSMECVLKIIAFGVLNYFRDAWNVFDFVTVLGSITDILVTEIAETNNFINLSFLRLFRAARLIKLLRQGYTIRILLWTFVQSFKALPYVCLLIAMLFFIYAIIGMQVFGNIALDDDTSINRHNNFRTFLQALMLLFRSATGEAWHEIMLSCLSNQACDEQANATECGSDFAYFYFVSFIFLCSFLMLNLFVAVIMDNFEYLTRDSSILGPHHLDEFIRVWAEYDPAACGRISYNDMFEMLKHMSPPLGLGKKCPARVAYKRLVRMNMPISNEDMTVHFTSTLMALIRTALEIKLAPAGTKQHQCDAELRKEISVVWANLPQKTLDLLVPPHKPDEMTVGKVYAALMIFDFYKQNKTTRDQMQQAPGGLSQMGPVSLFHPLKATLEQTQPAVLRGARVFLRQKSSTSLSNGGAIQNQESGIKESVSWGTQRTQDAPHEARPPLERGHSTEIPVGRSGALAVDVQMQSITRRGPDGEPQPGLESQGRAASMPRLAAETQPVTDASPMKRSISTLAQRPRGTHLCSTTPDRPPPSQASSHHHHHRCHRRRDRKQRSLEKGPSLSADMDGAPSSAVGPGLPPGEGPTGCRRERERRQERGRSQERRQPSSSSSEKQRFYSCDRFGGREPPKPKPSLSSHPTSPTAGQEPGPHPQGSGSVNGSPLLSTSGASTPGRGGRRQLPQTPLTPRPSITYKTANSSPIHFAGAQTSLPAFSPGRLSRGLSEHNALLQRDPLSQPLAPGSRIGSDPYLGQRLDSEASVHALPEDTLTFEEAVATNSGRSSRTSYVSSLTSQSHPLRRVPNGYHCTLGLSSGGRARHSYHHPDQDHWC
T1 sequence (P54289 25-956 partner limits assumed): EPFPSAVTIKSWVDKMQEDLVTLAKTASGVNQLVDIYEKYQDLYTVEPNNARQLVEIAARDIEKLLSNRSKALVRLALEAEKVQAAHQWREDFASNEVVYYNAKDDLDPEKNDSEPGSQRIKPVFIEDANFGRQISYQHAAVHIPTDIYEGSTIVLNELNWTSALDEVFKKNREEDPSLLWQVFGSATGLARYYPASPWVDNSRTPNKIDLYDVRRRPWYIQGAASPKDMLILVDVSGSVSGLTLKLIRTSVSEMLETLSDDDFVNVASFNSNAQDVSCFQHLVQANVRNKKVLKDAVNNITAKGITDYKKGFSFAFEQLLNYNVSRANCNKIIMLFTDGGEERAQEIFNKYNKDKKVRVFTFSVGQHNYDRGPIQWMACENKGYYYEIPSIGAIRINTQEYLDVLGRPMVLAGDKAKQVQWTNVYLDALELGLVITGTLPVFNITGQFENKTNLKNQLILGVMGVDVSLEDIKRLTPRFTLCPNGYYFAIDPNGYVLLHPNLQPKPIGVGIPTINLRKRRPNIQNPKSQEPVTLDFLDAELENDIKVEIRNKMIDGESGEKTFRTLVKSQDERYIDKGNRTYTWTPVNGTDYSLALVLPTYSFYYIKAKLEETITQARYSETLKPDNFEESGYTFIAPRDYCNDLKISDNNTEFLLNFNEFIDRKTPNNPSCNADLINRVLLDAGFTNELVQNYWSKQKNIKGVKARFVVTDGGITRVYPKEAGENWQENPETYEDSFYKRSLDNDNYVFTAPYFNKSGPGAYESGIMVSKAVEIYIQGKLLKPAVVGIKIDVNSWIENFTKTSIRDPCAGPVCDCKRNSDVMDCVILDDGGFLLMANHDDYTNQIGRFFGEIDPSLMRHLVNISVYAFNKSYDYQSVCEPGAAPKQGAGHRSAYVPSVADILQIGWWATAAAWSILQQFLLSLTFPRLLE
T1 sequence (P54289 957-1103 partner limits assumed): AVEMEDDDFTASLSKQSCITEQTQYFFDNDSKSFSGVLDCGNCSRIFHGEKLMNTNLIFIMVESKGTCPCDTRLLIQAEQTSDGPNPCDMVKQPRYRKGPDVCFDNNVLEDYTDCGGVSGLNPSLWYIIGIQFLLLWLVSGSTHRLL
T1 sequence (P54284 whole entry partner): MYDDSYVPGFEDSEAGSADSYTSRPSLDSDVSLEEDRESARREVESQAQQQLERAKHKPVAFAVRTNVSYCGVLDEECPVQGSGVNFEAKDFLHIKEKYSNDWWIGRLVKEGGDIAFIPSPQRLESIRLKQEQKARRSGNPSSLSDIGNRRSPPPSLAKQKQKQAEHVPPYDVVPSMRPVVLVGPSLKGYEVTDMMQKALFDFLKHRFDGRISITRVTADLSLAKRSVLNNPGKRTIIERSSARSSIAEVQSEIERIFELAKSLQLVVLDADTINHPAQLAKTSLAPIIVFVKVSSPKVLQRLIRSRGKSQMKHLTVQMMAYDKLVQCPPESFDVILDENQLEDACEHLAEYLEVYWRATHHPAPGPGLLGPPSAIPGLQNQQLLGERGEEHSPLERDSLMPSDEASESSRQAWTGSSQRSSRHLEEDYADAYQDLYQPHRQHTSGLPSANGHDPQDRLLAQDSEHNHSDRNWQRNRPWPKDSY
Briefly: FLIPR calcium mobilization assay for N-type calcium channel (differentiated IMR32 cells). The assay is classed as cell-based. To be noted: N-type calcium channel blockers, calcium mobilization in vitro assay. The method, then:
Cell maintenance and differentiation. Unless noted otherwise, cell culture reagents were purchased from Mediatech of Herndon, Md. IMR32 cells (American Type Culture Collection, ATCC, Manassas, Va.) were routinely cultured in growth medium consisting of minimum essential medium containing 10% fetal bovine serum (FBS, Hyclone, Logan, Utah), 100 U/mL penicillin, 100 μg/mL streptomycin, 2 mM L-glutamine, 1 mM sodium pyruvate, and 1×MEM non-essential amino acids. 80-90% confluent flasks of cells were differentiated using the following differentiation medium: Growth medium plus 1 mM dibutyryl cyclic AMP (Sigma, St. Louis, Mo.), and 2.5 μM bromodeoxyuridine (Sigma). Cells were differentiated for 8 days by replacing differentiation medium every 2-3 days.
FLIPR Calcium Mobilization Assay for N-type Calcium Channel.
One day prior to performing this assay, differentiated IMR32 cells were treated with 1× CellStripper, and seeded on poly-D-lysine-coated 96-well clear-bottom black plates (Becton Dickinson, Franklin Lakes, N.J.) at 200,000 cells/well. On the day of the assay, the cell plates were washed with IMR32 buffer (127 mM NaCl, 1 mM KCl, 2 mM MgCl2, 700 μM NaH2PO4, 5 mM CaCl2, 5 mM NaHCO3, 8 mM HEPES, 10 mM glucose, pH 7.4), then pre-stimulated with KCl and loaded as follows: […] of IMR32 buffer, 0.05 mL of each compound tested diluted in IMR32 buffer containing 20 μM nitrendipine (Sigma), and 0.1 mL KCl dissolved in IMR32 buffer, plus Fluo-4 were added (3 μM final concentration, Molecular Probes, Eugene, Oreg.). Final test compound concentrations ranged from about 846 pM to about 17 μM, final nitrendipine concentration was 5 μM, and final KCl concentration was 90 mM. After 1 hour, the cells were washed twice with 0.05 mL of each compound tested in nitrendipine-containing IMR32 buffer (no KCl or Fluo-4), and then replaced with 0.1 mL of each compound tested in nitrendipine-containing IMR32 buffer. Plates were then transferred to a Fluorimetric Imaging Plate Reader (FLIPR^96, Molecular Devices, Inc., Sunnyvale, Calif.) for assay. The FLIPR measured basal Fluo-4 fluorescence for 315 seconds (i.e., 5 minutes and 15 seconds), then added 0.1 mL KCl agonist dissolved in IMR32 buffer and measured fluorescence for another 45 seconds. Final test compound concentrations on the cells after FLIPR read ranged from about 846 pM to about 17 μM, final nitrendipine concentration was 5 μM, and final KCl concentration was 90 mM. Data were collected over the entire time course and analyzed using Excel, Graph Pad Prism (version 3.02, Graph Pad, San Diego, Calif.), or an in-house non-linear regression analysis software.
(A change in cytosolic calcium serves as a functional read-out for many receptors and channels.)
On to `O=C(NC1CC1)c1cccc(C2=CCN(S(=O)(=O)c3c(F)cc(F)cc3F)CC2)n1` [1′-(2,4,6-Trifluorobenzenesulfonyl)-1′,2′,3′,6′-tetrahydro-[2,4′]bipyridinyl-6-carboxylic acid cyclopropylamide], for which the IC50 was 990 nM.
The figure for `O=C(NC1CC1)c1cccc(C2=CCN(S(=O)(=O)c3ccc(Cl)cc3Cl)CC2)n1` [1′-(2,4-Dichlorobenzenesulfonyl)-1′,2′,3′,6′-tetrahydro-[2,4′]bipyridinyl-6-carboxylic acid cyclopropylamide] is 190 nM.
The figure for `CC(C)CS(=O)(=O)N1CC=C(c2cccc(C(=O)NC3CC3)n2)CC1` [1′-(2-Methylprop-1-ylsulfonyl)-1′,2′,3′,6′-tetrahydro-[2,4′]bipyridinyl-6-carboxylic acid cyclopropylamide] is 1460 nM; for `O=C(NC1CC1)c1cccc(C2=CCN(S(=O)(=O)c3ccccc3C(F)(F)F)CC2)n1` [1′-(2-Trifluoromethylbenzenesulfonyl)-1′,2′,3′,6′-tetrahydro-[2,4′]bipyridinyl-6-carboxylic acid cyclopropylamide] it is 80 nM.
For `O=C(NC1CC1)c1cccc(C2=CCN(S(=O)(=O)CCC(F)(F)F)CC2)n1` [1′-(3,3,3-Trifluoropropylsulfonyl)-1′,2′,3′,6′-tetrahydro-[2,4′]bipyridinyl-6-carboxylic acid cyclopropylamide], the IC50 was 3100 nM.
For the compound `O=C(NC1CC1)c1cccc(C2=CCN(S(=O)(=O)c3cc(Cl)cc(Cl)c3)CC2)n1` [1′-(3,5-Dichlorobenzenesulfonyl)-1′,2′,3′,6′-tetrahydro-[2,4′]bipyridinyl-6-carboxylic acid cyclopropylamide], the 50% inhibitory concentration (IC50) was 50 nM.
The figure for `O=C(NC1CC1)c1cccc(C2=CCN(S(=O)(=O)c3cccc(Cl)c3)CC2)n1` [1′-(3-Chlorobenzenesulfonyl)-1′,2′,3′,6′-tetrahydro-[2,4′]bipyridinyl-6-carboxylic acid cyclopropylamide] is 80 nM.
`N#Cc1cc(S(=O)(=O)N2CC=C(c3cccc(C(=O)NC4CC4)n3)CC2)ccc1F` [1′-(3-Cyano-4-fluorobenzenesulfonyl)-1′,2′,3′,6′-tetrahydro-[2,4′]bipyridinyl-6-carboxylic acid cyclopropylamide]: the IC50 amounted to 770 nM.
The figure for `N#Cc1cccc(S(=O)(=O)N2CC=C(c3cccc(C(=O)NC4CC4)n3)CC2)c1` [1′-(3-Cyanobenzenesulfonyl)-1′,2′,3′,6′-tetrahydro-[2,4′]bipyridinyl-6-carboxylic acid cyclopropylamide] is 50 nM; for `O=C(NC1CC1)c1cccc(C2=CCN(S(=O)(=O)c3cccc(OC(F)(F)F)c3)CC2)n1` [1′-(3-Trifluoromethoxybenzenesulfonyl)-1′,2′,3′,6′-tetrahydro-[2,4′]bipyridinyl-6-carboxylic acid cyclopropylamide] it is 40 nM.
For `O=S(=O)(c1cccc(C(F)(F)F)c1)N1CC=C(c2cccc(CO)n2)CC1` [1′-(3-Trifluoromethylbenzenesulfonyl)-1′,2′,3′,6′--tetrahydro-[2,4′]bipyridinyl-6-yl]methanol], the IC50 turned out to be 4240 nM.
The figure for `O=C(NCC(F)(F)F)c1cccc(C2=CCN(S(=O)(=O)c3cccc(C(F)(F)F)c3)CC2)n1` [1′-(3-Trifluoromethylbenzenesulfonyl)-1′,2′,3′,6′-tetrahydro-[2,4′]-bipyridinyl-6-carboxylic acid 2,2,2-trifluoroethylamide] is 30 nM; for `O=C(NCCC(F)(F)F)c1cccc(C2=CCN(S(=O)(=O)c3cccc(C(F)(F)F)c3)CC2)n1` [1′-(3-Trifluoromethylbenzenesulfonyl)-1′,2′,3′,6′-tetrahydro-[2,4′]-bipyridinyl-6-carboxylic acid 3,3,3-trifluoropropylamide] it is 50 nM.
`O=C(NC(CO)CO)c1cccc(C2=CCN(S(=O)(=O)c3cccc(C(F)(F)F)c3)CC2)n1` [1′-(3-Trifluoromethylbenzenesulfonyl)-1′,2′,3′,6′-tetrahydro-[2,4′]bipyridinyl-6-carboxylic acid 1,3-dihydroxyprop-2-ylamide]: the IC50 came out at 90 nM.
The figure for `O=C(NCCO)c1cccc(C2=CCN(S(=O)(=O)c3cccc(C(F)(F)F)c3)CC2)n1` [1′-(3-Trifluoromethylbenzenesulfonyl)-1′,2′,3′,6′-tetrahydro-[2,4′]bipyridinyl-6-carboxylic acid 2-hydroxyethylamide] is 70 nM; for `O=C(NCC(F)(F)F)c1ncccc1C1=CCN(S(=O)(=O)c2cccc(C(F)(F)F)c2)CC1` [1′-(3-Trifluoromethylbenzenesulfonyl)-1′,2′,3′,6′-tetrahydro-[3,4′]bipyridinyl-2-carboxylic acid 2,2,2-trifluoroethylamide] it is 660 nM; for `O=C(NCCC(F)(F)F)c1ncccc1C1=CCN(S(=O)(=O)c2cccc(C(F)(F)F)c2)CC1` [1′-(3-Trifluoromethylbenzenesulfonyl)-1′,2′,3′,6′-tetrahydro-[3,4′]bipyridinyl-2-carboxylic acid 3,3,3-trifluoropropylamide] it is 420 nM.
The figure for `O=C(NCC1CC1)c1ncccc1C1=CCN(S(=O)(=O)c2cccc(C(F)(F)F)c2)CC1` [1′-(3-Trifluoromethylbenzenesulfonyl)-1′,2′,3′,6′-tetrahydro-[3,4′]bipyridinyl-2-carboxylic acid cyclopropylmethylamide] is 140 nM; for `COC(=O)c1ncccc1C1=CCN(S(=O)(=O)c2cccc(C(F)(F)F)c2)CC1` [1′-(3-Trifluoromethylbenzenesulfonyl)-1′,2′,3′,6′-tetrahydro-[3,4′]bipyridinyl-2-carboxylic acid methyl ester] it is more than 20000 nM.
The figure for `O=C(NC1CC1)c1cccc(C2=CCN(S(=O)(=O)Cc3cccc(C(F)(F)F)c3)CC2)n1` [1′-(3-Trifluoromethylbenzylsulfonyl)-1′,2′,3′,6′-tetrahydro-[2,4′]bipyridinyl-6-carboxylic acid cyclopropylamide] is 670 nM; for `O=C(NC1CC1)c1cccc(C2=CCN(S(=O)(=O)c3ccc(F)cc3)CC2)n1` [1′-(4-Fluorobenzenesulfonyl)-1′,2′,3′,6′-tetrahydro-[2,4′]bipyridinyl-6-carboxylic acid cyclopropylamide] it is 350 nM.
Turning to `O=C(NCC(F)(F)F)c1cccc(C2=CCN(S(=O)(=O)c3ccc(OC(F)(F)F)cc3)CC2)n1` [1′-(4-Trifluoromethoxybenzenesulfonyl)-1′,2′,3′,6′-tetrahydro-[2,4′]-bipyridinyl-6-carboxylic acid 2,2,2-trifluoroethylamide], the IC50 worked out at 430 nM.
The figure for `O=C(NCCC(F)(F)F)c1cccc(C2=CCN(S(=O)(=O)c3ccc(OC(F)(F)F)cc3)CC2)n1` [1′-(4-Trifluoromethoxybenzenesulfonyl)-1′,2′,3′,6′-tetrahydro-[2,4′]-bipyridinyl-6-carboxylic acid 3,3,3-trifluoropropylamide] is 250 nM; for `O=C(Nc1ccc(F)cc1)c1cccc(C2=CCN(S(=O)(=O)c3ccc(OC(F)(F)F)cc3)CC2)n1` [1′-(4-Trifluoromethoxybenzenesulfonyl)-1′,2′,3′,6′-tetrahydro-[2,4′]-bipyridinyl-6-carboxylic acid 4-fluorophenylamide] it is 1920 nM.
